Laboratory results as given in BindingDB's records for doi:10.1021/jm000991r (University of Bologna, 2001).

Biological target: Cholinesterase (Homo sapiens, UniProt P06276)
Experiment: Inhibitory activity against butyrylcholinesterase (BChE) in human […]

Chain of Cholinesterase (P06276 whole entry): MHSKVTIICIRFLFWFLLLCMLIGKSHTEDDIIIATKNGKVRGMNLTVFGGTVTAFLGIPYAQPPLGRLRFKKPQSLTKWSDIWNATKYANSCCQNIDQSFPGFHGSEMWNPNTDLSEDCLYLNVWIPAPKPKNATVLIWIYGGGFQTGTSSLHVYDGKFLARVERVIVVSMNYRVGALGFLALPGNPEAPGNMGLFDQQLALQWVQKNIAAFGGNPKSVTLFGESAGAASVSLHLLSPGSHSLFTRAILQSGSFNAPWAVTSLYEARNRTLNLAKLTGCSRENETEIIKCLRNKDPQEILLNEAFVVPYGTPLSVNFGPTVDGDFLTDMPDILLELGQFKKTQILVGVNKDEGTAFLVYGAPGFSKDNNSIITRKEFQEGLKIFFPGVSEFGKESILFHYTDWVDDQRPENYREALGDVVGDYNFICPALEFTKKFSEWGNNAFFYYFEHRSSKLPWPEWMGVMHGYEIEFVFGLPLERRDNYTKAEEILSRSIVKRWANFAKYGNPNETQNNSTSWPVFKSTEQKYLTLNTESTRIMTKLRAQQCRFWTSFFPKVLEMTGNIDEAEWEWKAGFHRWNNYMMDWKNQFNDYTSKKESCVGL

SMILES | IC50 [µM]
CN1CC[C@H]2COc3c(O)cccc3[C@H]21 | 794
O=C(CCCCCCC(=O)NCCCCCCN1CC[C@H]2COc3ccccc3[C@H]21)NCCCCCCN1CC[C@H]2COc3ccccc3[C@H]21 | 0.912
CNC(=O)Oc1ccc2c(c1)[C@@H]1[C@@H](CCN1C)CO2 | 10.2
CNC(=O)Oc1ccc2c(c1)OC[C@@H]1CC[N+](C)(C)[C@H]21 | 2.95
CNC(=O)Oc1cccc2c1OC[C@@H]1CCN(C)[C@H]21 [(2S,6R)-3-methyl-8-oxa-3-azatricyclo[7.4.0.0^{2,6}]trideca-1(13),9,11-trien-10-yl N-methylcarbamate] | 0.054
CNC(=O)Oc1ccc2c(c1)OC[C@@H]1CCN(C)[C@H]21 [(3aR,9bS)-1-methyl-1,2,3,3a,4,9b-hexahydrochromeno[4,3-b]pyrrol-7-yl methylcarbamate] | 3.55
